Results published in patent US20150284375A1 (AJINOMOTO CO., INC., priority 2012, published 2015).

Biological target: T1, human TRPA1 (Homo sapiens, UniProt O75762)
T1 construct: expressed in transfected cells; host or cells: Human embryonic kidney-derived 293T cells, transiently transfected with the pcDNA3.1/zeo(+) human TRPA1 plasmid
Assay: Measurement of TRPA1 antagonist activity (intracellular calcium increase, FLIPR, allylisothiocyanate stimulation)
Assay type: cell-based
Details: allylisothiocyanate 20 μM stimulation, FLIPR calcium assay; read-out: antagonism hTRPA1
Procedure, shortened: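 IC50 derives from a sigmoid fit of inhibition of the 5-min FLIPR fluorescence change evoked by 20 μM allylisothiocyanate, normalized between agonist and buffer responses. Test substance, diluted in HBSS/20 mM HEPES pH 7.2 plus 0.1% BSA, was applied 10 min beforehand at room temperature to Calcium4-loaded 293T cells transiently expressing human TRPA1.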

T1 sequence (O75762 whole entry): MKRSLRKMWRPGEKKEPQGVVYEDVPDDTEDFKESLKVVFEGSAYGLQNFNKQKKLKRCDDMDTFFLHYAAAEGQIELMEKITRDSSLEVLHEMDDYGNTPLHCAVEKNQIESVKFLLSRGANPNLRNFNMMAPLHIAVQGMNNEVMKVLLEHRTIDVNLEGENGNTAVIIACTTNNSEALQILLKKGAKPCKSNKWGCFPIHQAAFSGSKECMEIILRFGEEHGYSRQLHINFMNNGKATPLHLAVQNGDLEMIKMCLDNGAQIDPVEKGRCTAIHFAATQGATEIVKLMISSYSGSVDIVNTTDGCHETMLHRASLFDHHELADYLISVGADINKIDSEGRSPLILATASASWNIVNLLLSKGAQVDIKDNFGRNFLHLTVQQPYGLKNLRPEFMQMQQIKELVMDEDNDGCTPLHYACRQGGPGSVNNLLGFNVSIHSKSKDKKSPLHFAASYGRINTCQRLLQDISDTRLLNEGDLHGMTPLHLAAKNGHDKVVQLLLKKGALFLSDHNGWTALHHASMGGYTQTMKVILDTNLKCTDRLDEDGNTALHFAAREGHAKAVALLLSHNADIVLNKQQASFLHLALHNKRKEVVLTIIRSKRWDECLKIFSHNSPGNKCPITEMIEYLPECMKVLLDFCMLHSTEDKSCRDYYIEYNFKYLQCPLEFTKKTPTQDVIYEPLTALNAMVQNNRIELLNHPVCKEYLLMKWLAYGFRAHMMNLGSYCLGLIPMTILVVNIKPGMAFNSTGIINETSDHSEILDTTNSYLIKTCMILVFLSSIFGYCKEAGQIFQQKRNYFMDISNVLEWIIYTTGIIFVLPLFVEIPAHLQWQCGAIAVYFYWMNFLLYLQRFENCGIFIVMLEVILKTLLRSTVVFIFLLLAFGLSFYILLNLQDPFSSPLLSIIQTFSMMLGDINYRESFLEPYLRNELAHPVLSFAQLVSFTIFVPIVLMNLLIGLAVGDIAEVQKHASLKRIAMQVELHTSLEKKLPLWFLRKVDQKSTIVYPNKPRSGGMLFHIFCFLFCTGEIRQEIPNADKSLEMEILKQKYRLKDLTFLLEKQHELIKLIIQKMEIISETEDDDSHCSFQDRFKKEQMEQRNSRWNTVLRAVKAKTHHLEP

IC50	SMILES
260 nM	O=C(NCc1cccc(OCc2ccc(C(F)(F)F)cc2)c1)[C@@H]1CCCN1S(=O)(=O)c1cccc(Cl)c1 [Example 193, (2S)-1-(3-chlorophenyl)sulfonyl-N-[[3-[[4-(trifluoromethyl)phenyl]methoxy]phenyl]methyl]pyrrolidine-2-carboxamide]
1100 nM	N#Cc1cccc(S(=O)(=O)N2CCC[C@H]2C(=O)NCc2cccc(OCc3ccc(C(F)(F)F)cc3)c2)c1 [Example 194, (2S)-1-(3-cyanophenyl)sulfonyl-N-[[3-[[4-(trifluoromethyl)phenyl]methoxy]phenyl]methyl]pyrrolidine-2-carboxamide]
1700 nM	CC(=O)c1ccc(S(=O)(=O)N2CCC[C@H]2C(=O)NCc2cccc(OCc3ccc(C(F)(F)F)cc3)c2)cc1 [Example 195, (2S)-1-(4-acetylphenyl)sulfonyl-N-[[3-[[4-(trifluoromethyl)phenyl]methoxy]phenyl]methyl]pyrrolidine-2-carboxamide]
640 nM	COc1ccc(S(=O)(=O)N2CCC[C@H]2C(=O)NCc2cccc(OCc3ccc(C(F)(F)F)cc3)c2)cc1 [Example 196, (2S)-1-(4-methoxyphenyl)sulfonyl-N-[[3-[[4-(trifluoromethyl)phenyl]methoxy]phenyl]methyl]pyrrolidine-2-carboxamide]
1700 nM	COc1cccc(S(=O)(=O)N2CCC[C@H]2C(=O)NCc2cccc(OCc3ccc(C(F)(F)F)cc3)c2)c1 [Example 197, (2S)-1-(3-methoxyphenyl)sulfonyl-N-[[3-[[4-(trifluoromethyl)phenyl]methoxy]phenyl]methyl]pyrrolidine-2-carboxamide]
3900 nM	COc1ccccc1S(=O)(=O)N1CCC[C@H]1C(=O)NCc1cccc(OCc2ccc(C(F)(F)F)cc2)c1 [Example 198, (2S)-1-(2-methoxyphenyl)sulfonyl-N-[[3-[[4-(trifluoromethyl)phenyl]methoxy]phenyl]methyl]pyrrolidine-2-carboxamide]
2200 nM	O=C(NCc1cccc(OCc2ccc(C(F)(F)F)cc2)c1)[C@@H]1CCCN1S(=O)(=O)c1ccc(OC(F)F)cc1 [Example 199, (2S)-1-[4-(difluoromethoxy)phenyl]sulfonyl-N-[[3-[[4-(trifluoromethyl)phenyl]methoxy]phenyl]methyl]pyrrolidine-2-carboxamide]
60 nM	O=C(NCc1cccc(OCc2ccc(C(F)(F)F)cc2)c1)[C@@H]1CCCN1S(=O)(=O)c1cccs1 [Example 200, (2S)-1-(2-thienylsulfonyl)-N-[[3-[[4-(trifluoromethyl)phenyl]methoxy]phenyl]methyl]pyrrolidine-2-carboxamide]
120 nM	O=C(NCc1cccc(OCc2ccc(C(F)(F)F)cc2)c1)[C@@H]1CCCN1S(=O)(=O)c1cccnc1 [Example 201, (2S)-1-(3-pyridylsulfonyl)-N-[[3-[[4-(trifluoromethyl)phenyl]methoxy]phenyl]methyl]pyrrolidine-2-carboxamide]
400 nM	O=C(NCc1cccc(OCc2ccc(C(F)(F)F)cc2)c1)[C@@H]1CCCN1S(=O)(=O)c1ccccn1 [Example 202, (2S)-1-(2-pyridylsulfonyl)-N-[[3-[[4-(trifluoromethyl)phenyl]methoxy]phenyl]methyl]pyrrolidine-2-carboxamide]
170 nM	Cc1ccc(S(=O)(=O)N2CCC[C@H]2C(=O)NCc2cccc(OCc3ccc(C(F)(F)F)cc3)c2)o1 [Example 203, (2S)-1-[(5-methyl-2-foryl)sulfonyl]-N-[[3-[[4-(trifluoromethyl)phenyl]methoxy]phenyl]methyl]pyrrolidine-2-carboxamide]
1000 nM	Cc1sccc1S(=O)(=O)N1CCC[C@H]1C(=O)NCc1cccc(OCc2ccc(C(F)(F)F)cc2)c1 [Example 204, (2S)-1-[(2-methyl-3-thienyl)sulfonyl]-N-[[3-[[4-(trifluoromethyl)phenyl]methoxy]phenyl]methyl]pyrrolidine-2-carboxamide]
280 nM	O=C(NCc1cccc(OCc2ccc(C(F)(F)F)cc2)c1)[C@@H]1CCCN1S(=O)(=O)c1cnn(C(F)F)c1 [Example 205, (2S)-1-[1-(difluoromethyl)pyrazol-4-yl]sulfonyl-N-[[3-[[4-(trifluoromethyl)phenyl]methoxy]phenyl]methyl]pyrrolidine-2-carboxamide]
290 nM	O=C(NCc1cccc(OCc2ccc(C(F)(F)F)cc2)c1)[C@@H]1CCCN1S(=O)(=O)c1cnc2ccccc2c1 [Example 206, (2S)-1-(3-quinolylsulfonyl)-N-[[3-[[4-(trifluoromethyl)phenyl]methoxy]phenyl]methyl]pyrrolidine-2-carboxamide]
1200 nM	O=C(NCc1cccc(OCc2ccc(C(F)(F)F)cc2)c1)[C@@H]1CCCN1S(=O)(=O)c1ccc2ncccc2c1 [Example 207, (2S)-1-(6-quinolylsulfonyl)-N-[[3-[[4-(trifluoromethyl)phenyl]methoxy]phenyl]methyl]pyrrolidine-2-carboxamide]
87 nM	O=C(NCc1cccc(OCc2ccc(C(F)(F)F)cc2)c1)[C@@H]1CCCN1S(=O)(=O)c1cc2ccccc2s1 [Example 208, (2S)-1-(benzothiophen-2-ylsulfonyl)-N-[[3-[[4-(trifluoromethyl)phenyl]methoxy]phenyl]methyl]pyrrolidine-2-carboxamide]
2900 nM	O=C(NCc1cccc(OCc2ccc(C(F)(F)F)cc2)c1)[C@@H]1CCCN1S(=O)(=O)c1ccc2ncsc2c1 [Example 209, (2S)-1-(1,3-benzothiazol-6-ylsulfonyl)-N-[[3-[[4-(trifluoromethyl)phenyl]methoxy]phenyl]methyl]pyrrolidine-2-carboxamide]
150 nM	O=C(NCc1cccc(OCc2ccc(C(F)(F)F)cc2)c1)[C@@H]1CCCN1S(=O)(=O)c1ccc2nsnc2c1 [Example 210, (2S)-1-(2,1,3-benzothiadiazol-5-ylsulfonyl)-N-[[3-[[4-(trifluoromethyl)phenyl]methoxy]phenyl]methyl]pyrrolidine-2-carboxamide]
5500 nM	O=C(NCc1cccc(OCc2ccc(C(F)(F)F)cc2)c1)[C@@H]1CCCN1S(=O)(=O)c1cccc2nsnc12 [Example 211, (2S)-1-(2,1,3-benzothiadiazol-4-ylsulfonyl)-N-[[3-[[4-(trifluoromethyl)phenyl]methoxy]phenyl]methyl]pyrrolidine-2-carboxamide]
6200 nM	O=C(NCc1cccc(OCc2ccc(C(F)(F)F)cc2)c1)[C@@H]1CCCN1S(=O)(=O)c1cccc2nonc12 [Example 212, (2S)-1-(2,1,3-benzoxadiazol-4-ylsulfonyl)-N-[[3-[[4-(trifluoromethyl)phenyl]methoxy]phenyl]methyl]pyrrolidine-2-carboxamide]
350 nM	O=C(NCc1cccc(OCc2ccc(C(F)(F)F)cc2)c1)[C@@H]1CC=CCN1S(=O)(=O)c1ccc(F)cc1 [Example 213, (2S)-1-(4-fluorophenyl)sulfonyl-N-[[3-[[4-(trifluoromethyl)phenyl]methoxy]phenyl]methyl]-3,6-dihydro-2H-pyridine-2-carboxamide]
120 nM	O=C(NCc1cccc(OCc2ccc(C(F)(F)F)cc2)c1)[C@@H]1[C@H]2CC[C@H](C2)N1S(=O)(=O)c1ccc(F)cc1 [Example 214, (1S,2S,4R)-3-(4-fluorophenyl)sulfonyl-N-[[3-[[4-(trifluoromethyl)phenyl]methoxy]phenyl]methyl]-3-azabicyclo[2.2.1] heptane-2-carboxamide]
110 nM	O=C(NCc1cccc(OCc2ccc(C(F)(F)F)cc2)c1)[C@@H]1[C@H]2CC[C@H](C2)N1S(=O)(=O)c1ccsc1 [Example 215, (1S,2S,4R)-3-(3-thienylsulfonyl)-N-[[3-[[4-(trifluoromethyl)phenyl]methoxy]phenyl]methyl]-3-azabicyclo[2.2.1]heptane-2-carboxamide]
60 nM	O=C(NCc1cccc(OCc2ccc(C(F)(F)F)cc2)c1)[C@@H]1CCCN1S(=O)(=O)c1ccncc1 [Example 216, (2S)-1-(4-pyridylsulfonyl)-N-[[3-[[4-(trifluoromethyl)phenyl]methoxy]phenyl]methyl]pyrrolidine-2-carboxamide]
940 nM	O=C(NCc1cccc(OCc2ccc(C(F)(F)F)cc2)c1)[C@@H]1CCCN1S(=O)(=O)c1cncs1 [Example 217, (2S)-1-thiazol-5-ylsulfonyl-N-[[3-[[4-(trifluoromethyl)phenyl]methoxy]phenyl]methyl]pyrrolidine-2-carboxamide]
830 nM	O=C(NCc1cccc(OCc2ccc(C(F)(F)F)cc2)c1)[C@@H]1CCCN1S(=O)(=O)c1cscn1 [Example 218, (2S)-1-thiazol-4-ylsulfonyl-N-[[3-[[4-(trifluoromethyl)phenyl]methoxy]phenyl]methyl]pyrrolidine-2-carboxamide]
120 nM	O=C(NCc1cccc(OCc2ccc(C(F)(F)F)cc2)c1)[C@@H]1CCCN1S(=O)(=O)c1nc2ccccc2s1 [Example 219, (2S)-1-(1,3-benzothiazol-2-ylsulfonyl)-N-[[3-[[4-(trifluoromethyl)phenyl]methoxy]phenyl]methyl]pyrrolidine-2-carboxamide]
190 nM	O=C(NCc1cccc(OCc2ccc(C(F)(F)F)cc2)c1)[C@@H]1CCCN1S(=O)(=O)n1ccnc1 [Example 220, (2S)-1-imidazol-1-ylsulfonyl-N-[[3-[[4-(trifluoromethyl)phenyl]methoxy]phenyl]methyl]pyrrolidine-2-carboxamide]
